Patent publication US9512120B2, “Microbicidally active imidazopyridine derivatives” (Syngenta Participations AG, priority 2013, dated 2016)

Experiments:
[1] = tested on: Puccinia recondita f. sp. Tritici; test: Puccinia recondita f. sp. tritici / wheat / leaf disc preventative (brown rust); assay type: in vivo; conditions: foliar, wheat leaf segments cv Kanzler, inoculated 1 day after application, assessed 7-9 days after application, read-out: control of Puccinia recondita f. sp. Tritici (percent disease control compared to untreated)
Outline: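 Leaf segments of wheat cv Kanzler on agar were sprayed with formulated compound at 200 ppm and inoculated with spores 1 day later. Incubation was at 19° C, 75% relative humidity and 12/12 h light/dark. Activity was scored 7-9 days after application as percent disease control versus untreated.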

[2] = tested on: Phaeosphaeria nodorum (Septoria nodorum); test: Phaeosphaeria nodorum (Septoria nodorum) / wheat / leaf disc preventative (glume blotch); assay type: in vivo; conditions: Parastagonospora nodorum, foliar, wheat leaf segments cv Kanzler, inoculated 2 days after application, assessed 5-7 days after application, read-out: control of Phaeosphaeria nodorum (percent disease control compared to untreated)
Outline: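 Wheat leaf segments (cv Kanzler) on agar sprayed with compound at 200 ppm, inoculated with spores 2 days later. Incubated at 20° C., 75% relative humidity, 12/12 h light/dark; percent disease control versus untreated scored 5-7 days after application.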

[3] = tested on: Pyrenophora teres; test: Pyrenophora teres / barley / leaf disc preventative (net blotch); assay type: in vivo; conditions: foliar, barley leaf segments cv Hasso, inoculated two days after application, assessed 5-7 days after application, read-out: control of Pyrenophora teres (disease control compared to untreated)
Outline: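 Barley cv Hasso leaf segments on agar sprayed with compound at 200 ppm, inoculated with spores two days later. Kept at 20 °C, 65% RH, 12/12 h light; disease control versus untreated scored 5-7 days after application.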

[4] = tested on: Botryotinia fuckeliana (Botrytis cinerea); test: Botryotinia fuckeliana (Botrytis cinerea) / liquid culture (gray mould); assay type: cell-based; conditions: Vogels broth, 24° C., 3-4 days after application, read-out: control of Botryotinia fuckeliana (inhibition of growth, photometric)
Outline: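 Botrytis cinerea conidia in Vogels broth were added to test compound applied from DMSO at 200 ppm. Incubation at 24 °C; growth inhibition read photometrically 3-4 days after application.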

[5] = tested on: Mycosphaerella graminicola (Septoria tritici); test: Mycosphaerella graminicola (Septoria tritici) / liquid culture (Septoria blotch); assay type: cell-based; conditions: Zymoseptoria tritici, PDB, 24° C., 4-5 days after application, read-out: control of Mycosphaerella graminicola (inhibition of growth, photometric)
Outline: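 Cryo-stored conidia in potato dextrose broth were added to compound in DMSO at 200 ppm in microtiter plates. Plates were incubated at 24 °C and growth inhibition was measured photometrically 4–5 days after application.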

[6] = tested on: Gaeumannomyces graminis; test: Gaeumannomyces graminis / liquid culture (take-all of cereals); assay type: cell-based; conditions: PDB, 24° C., 4-5 days after application, read-out: control of Gaeumannomyces graminis (inhibition of growth, photometric)
Outline: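 Mycelial fragments in potato dextrose broth were exposed to compound from DMSO at 200 ppm in microtiter plates. Incubation at 24 °C; growth inhibition read photometrically 4-5 days after application.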

[7] = tested on: Monographella nivalis (Microdochium nivale); test: Monographella nivalis (Microdochium nivale) / liquid culture (foot rot cereals); assay type: cell-based; conditions: PDB, 24° C., 4-5 days after application, read-out: control of Monographella nivalis (inhibition of growth, photometric)
Outline: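 Cryostored conidia in potato dextrose broth were added to test compound dispensed from DMSO at 200 ppm. Plates were kept at 24° C, and growth inhibition was read photometrically 4-5 days after application.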

[8] = tested on: Blumeria graminis f. Sp. Tritici (Erysiphe graminis f. Sp. Tritici); test: Blumeria graminis f. sp. tritici / wheat / leaf disc preventative (powdery mildew on wheat); assay type: in vivo; conditions: foliar, wheat leaf segments cv. Kanzler, inoculated 1 day after application, assessed 6-8 days after application, read-out: control of Blumeria graminis (percent disease control compared to untreated)
Outline: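 Wheat leaf segments (cv. Kanzler) on agar sprayed with formulated compound at 200 ppm, inoculated with powdery mildew 1 day later. Held at 20 °C, 60% RH, 24 h dark then 12 h/12 h light; percent disease control versus untreated scored 6-8 days after application.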

CCCn1c(-n2ncnc2N)nc2cnccc21 [Compound 13, 2-(1-propylimidazo[4,5-c]pyridin-2-yl)-1,2,4-triazol-3-amine]
≥ 80%: pest or weed control at 200 ppm [1] | pest or weed control at 200 ppm [2] | pest or weed control at 200 ppm [3] | inhibition at 20 ppm [4] | inhibition at 20 ppm [5] | inhibition at 20 ppm [6] | inhibition at 20 ppm [7] | pest or weed control at 200 ppm [8]

CCc1cncc2nc(-n3ncnc3N)n(CC)c12 [Compound 23, 2-(1,7-diethylimidazo[4,5-c]pyridin-2-yl)-1,2,4-triazol-3-amine]
≥ 80%: pest or weed control at 200 ppm [1] | pest or weed control at 200 ppm [2] | pest or weed control at 200 ppm [3] | inhibition at 20 ppm [4] | inhibition at 20 ppm [5] | inhibition at 20 ppm [6] | inhibition at 20 ppm [7] | pest or weed control at 200 ppm [8]

CC=Cc1cncc2nc(-n3ncnc3N)n(CC)c12 [Compound 67, 2-(1-ethyl-7-prop-1-enylimidazo[4,5-c]pyridin-2-yl)-1,2,4-triazol-3-amine]
≥ 80%: pest or weed control at 200 ppm [1] | pest or weed control at 200 ppm [2] | pest or weed control at 200 ppm [3] | inhibition at 20 ppm [4] | inhibition at 20 ppm [5] | inhibition at 20 ppm [6] | inhibition at 20 ppm [7] | pest or weed control at 200 ppm [8]

CCn1c(-n2ncnc2N)nc2cncc(C(C)=O)c21 [Compound 75, 1-[2-(5-amino-1,2,4-triazol-1-yl)-1-ethylimidazo[4,5-c]pyridin-7-yl]ethanone]
≥ 80%: pest or weed control at 200 ppm [1] | pest or weed control at 200 ppm [2] | pest or weed control at 200 ppm [3] | inhibition at 20 ppm [4] | inhibition at 20 ppm [5] | inhibition at 20 ppm [6] | inhibition at 20 ppm [7] | pest or weed control at 200 ppm [8]

CCn1c(-n2ncnc2N)nc2cncc(-c3ccc(F)c(F)c3F)c21 [Compound 86, 2-[1-ethyl-7-(2,3,4-trifluorophenyl)imidazo[4,5-c]pyridin-2-yl]-1,2,4-triazol-3-amine]
≥ 80%: pest or weed control at 200 ppm [1] | pest or weed control at 200 ppm [2] | pest or weed control at 200 ppm [3] | inhibition at 20 ppm [4] | inhibition at 20 ppm [5] | inhibition at 20 ppm [6] | inhibition at 20 ppm [7] | pest or weed control at 200 ppm [8]

CCn1c(-n2ncnc2N)nc2cncc(-c3cccnc3F)c21 [Compound 89, 2-[1-ethyl-7-(2-fluoropyridin-3-yl)imidazo[4,5-c]pyridin-2-yl]-1,2,4-triazol-3-amine]
≥ 80%: pest or weed control at 200 ppm [1] | pest or weed control at 200 ppm [2] | pest or weed control at 200 ppm [3] | inhibition at 20 ppm [4] | inhibition at 20 ppm [5] | inhibition at 20 ppm [6] | inhibition at 20 ppm [7] | pest or weed control at 200 ppm [8]

CCn1c(-n2ncnc2N)nc2cncc(-c3cccc(Cl)c3F)c21 [Compound 90, 2-[7-(3-chloro-2-fluorophenyl)-1-ethylimidazo[4,5-c]pyridin-2-yl]-1,2,4-triazol-3-amine]
≥ 80%: pest or weed control at 200 ppm [1] | pest or weed control at 200 ppm [2] | pest or weed control at 200 ppm [3] | inhibition at 20 ppm [4] | inhibition at 20 ppm [5] | inhibition at 20 ppm [6] | inhibition at 20 ppm [7] | pest or weed control at 200 ppm [8]

CCn1c(-n2ncnc2N)nc2cncc(-c3cccc(OC)c3F)c21 [Compound 93, 2-[1-ethyl-7-(2-fluoro-3-methoxyphenyl)imidazo[4,5-c]pyridin-2-yl]-1,2,4-triazol-3-amine]
≥ 80%: pest or weed control at 200 ppm [1] | pest or weed control at 200 ppm [2] | pest or weed control at 200 ppm [3] | inhibition at 20 ppm [4] | inhibition at 20 ppm [5] | inhibition at 20 ppm [6] | inhibition at 20 ppm [7] | pest or weed control at 200 ppm [8]

CCn1c(-n2ncnc2N)nc2cncc(-c3cccc(F)c3F)c21 [Compound 102, 2-[7-(2,3-difluorophenyl)-1-ethylimidazo[4,5-c]pyridin-2-yl]-1,2,4-triazol-3-amine]
≥ 80%: pest or weed control at 200 ppm [1] | pest or weed control at 200 ppm [2] | pest or weed control at 200 ppm [3] | inhibition at 20 ppm [4] | inhibition at 20 ppm [5] | inhibition at 20 ppm [6] | inhibition at 20 ppm [7] | pest or weed control at 200 ppm [8]

CCn1c(-n2ncnc2N)nc2cncc(/C(C)=N\OC/C=C(\C)Cl)c21 [Compound 153, 2-[7-[(Z)-N-[(E)-3-chlorobut-2-enoxy]-C-methyl-carbonimidoyl]-1-ethyl-imidazo[4,5-c]pyridin-2-yl]-1,2,4-triazol-3-amine]
≥ 80%: pest or weed control at 200 ppm [1] | pest or weed control at 200 ppm [2] | pest or weed control at 200 ppm [3] | inhibition at 20 ppm [4] | inhibition at 20 ppm [5] | inhibition at 20 ppm [6] | inhibition at 20 ppm [7] | pest or weed control at 200 ppm [8]

CCCn1c(-n2ncnc2N)nc2cncc(C)c21 [Compound 173, 2-(7-methyl-1-propyl-imidazo[4,5-c]pyridin-2-yl)-1,2,4-triazol-3-amine]
≥ 80%: pest or weed control at 200 ppm [1] | pest or weed control at 200 ppm [2] | pest or weed control at 200 ppm [3] | inhibition at 20 ppm [4] | inhibition at 20 ppm [5] | inhibition at 20 ppm [6] | inhibition at 20 ppm [7] | pest or weed control at 200 ppm [8]

CCCn1c(-n2ncnc2N)nc2cncc(CC)c21 [Compound 174, 2-(7-ethyl-1-propyl-imidazo[4,5-c]pyridin-2-yl)-1,2,4-triazol-3-amine]
≥ 80%: pest or weed control at 200 ppm [1] | pest or weed control at 200 ppm [2] | pest or weed control at 200 ppm [3] | inhibition at 20 ppm [4] | inhibition at 20 ppm [5] | inhibition at 20 ppm [6] | inhibition at 20 ppm [7] | pest or weed control at 200 ppm [8]
